Data: ChEMBL document CHEMBL6121016, “Design, Synthesis, and Biological Evaluation of 1,3,4-Thiadiazole Derivatives as Novel Potent Peptide Deformylase Inhibitors for Combating Drug-Resistant Gram-Positive and -Negative Bacteria” (J Med Chem, 2025)
≈ marks a conversion by molar mass, not a printed value.

What was measured:
Type in all cases: functional
Settings in all cases: time 16-18 hrs
Staphylococcus aureus [1] = experiment: Antibacterial activity against methicillin-resistant Staphylococcus aureus ATCC 33591 after 16 to 18 hrs by broth microdilution method
Staphylococcus aureus [2] = experiment: Antibacterial activity against methicillin-resistant Staphylococcus aureus ATCC 43300 after 16 to 18 hrs by broth microdilution method
Staphylococcus aureus [3] = experiment: Antibacterial activity against methicillin-resistant Staphylococcus aureus Bio-090770 after 16 to 18 hrs by broth microdilution method
Staphylococcus aureus [4] = experiment: Antibacterial activity against methicillin-susceptible Staphylococcus aureus ATCC 29213 after 16 to 18 hrs by broth microdilution method
Staphylococcus aureus [5] = experiment: Antibacterial activity against methicillin-susceptible Staphylococcus aureus ATCC 25923 after 16 to 18 hrs by broth microdilution method
Staphylococcus aureus [6] = experiment: Antibacterial activity against methicillin-susceptible Staphylococcus aureus ATCC 13709 after 16 to 18 hrs by broth microdilution method
[7] = system: Staphylococcus epidermidis; experiment: Antibacterial activity against Staphylococcus epidermidis after 16 to 18 hrs by broth microdilution method
Escherichia coli = experiment: Antibacterial activity against Escherichia coli ATCC 25922 after 16 to 18 hrs by broth microdilution method
Klebsiella pneumoniae = experiment: Antibacterial activity against Klebsiella pneumoniae CICC 21611 after 16 to 18 hrs by broth microdilution method
Acinetobacter baumannii [8] = experiment: Antibacterial activity against Acinetobacter baumannii Bio 34235 after 16 to 18 hrs by broth microdilution method
Acinetobacter baumannii [9] = experiment: Antibacterial activity against drug-resistant Acinetobacter baumannii Bio 53272 after 16 to 18 hrs by broth microdilution method

Row | SMILES | MIC (Staphylococcus aureus [1]) [µg/mL] | MIC (Staphylococcus aureus [2]) [µg/mL] | MIC (Staphylococcus aureus [3]) [µg/mL] | MIC (Staphylococcus aureus [4]) [µg/mL] | MIC (Staphylococcus aureus [5]) [µg/mL] | MIC (Staphylococcus aureus [6]) [µg/mL] | MIC [7] [µg/mL] | MIC (Escherichia coli) [µg/mL] | MIC (Klebsiella pneumoniae) [µg/mL] | MIC (Acinetobacter baumannii [8]) [µg/mL] | MIC (Acinetobacter baumannii [9]) [µg/mL]
1 | CCCC[C@H](CN(O)C=O)C(=O)N1CCC[C@H]1c1nnc(-c2ccc(C(F)(F)F)cc2F)s1 | 0.25 (≈ 0.512 µM) | 1 (≈ 2.05 µM) | 1 (≈ 2.05 µM) | 2 (≈ 4.09 µM) | 2 (≈ 4.09 µM) | 2 (≈ 4.09 µM) | 4 (≈ 8.19 µM) | > 16 | > 16 | > 16 | > 16
2 | CCCC[C@H](CN(O)C=O)C(=O)N1CCC[C@H]1c1nnc(-c2cc(C(F)(F)F)cc(C(F)(F)F)c2)s1 | 2 (≈ 3.71 µM) | 2 (≈ 3.71 µM) | 4 (≈ 7.43 µM) | 4 (≈ 7.43 µM) | 2 (≈ 3.71 µM) | 2 (≈ 3.71 µM) | > 16 | > 16 | > 16 | > 16 | > 16
3 | CCCC[C@H](CN(O)C=O)C(=O)N1CCC[C@H]1c1nnc(-c2ccc(Br)cc2)s1 | 0.5 (≈ 1.04 µM) | 0.5 (≈ 1.04 µM) | 1 (≈ 2.08 µM) | 1 (≈ 2.08 µM) | 0.5 (≈ 1.04 µM) | 0.5 (≈ 1.04 µM) | 1 (≈ 2.08 µM) | > 16 | > 16 | > 16 | 16 (≈ 33.2 µM)
4 | CCCC[C@H](CN(O)C=O)C(=O)N1CCC[C@H]1c1nnc(-c2cscn2)s1 | 0.5 (≈ 1.22 µM) | 0.5 (≈ 1.22 µM) | 2 (≈ 4.88 µM) | 1 (≈ 2.44 µM) | 1 (≈ 2.44 µM) | 1 (≈ 2.44 µM) | 0.25 (≈ 0.61 µM) | 64 (≈ 156 µM) | 32 (≈ 78.1 µM) | 64 (≈ 156 µM) | 16 (≈ 39.1 µM)
5 | CCCC[C@H](CN(O)C=O)C(=O)N1CCC[C@H]1c1nnc(-c2cccc3ccccc23)s1 | 4 (≈ 8.84 µM) | 16 (≈ 35.4 µM) | 16 (≈ 35.4 µM) | 16 (≈ 35.4 µM) | 16 (≈ 35.4 µM) | 16 (≈ 35.4 µM) | 2 (≈ 4.42 µM) | > 16 | > 16 | > 16 | > 16
6 | CCCC[C@H](CN(O)C=O)C(=O)N1CCC[C@H]1c1nnc(-c2ccc(F)cc2[N+](=O)[O-])s1 | 1 (≈ 2.15 µM) | 2 (≈ 4.3 µM) | 4 (≈ 8.59 µM) | 2 (≈ 4.3 µM) | 4 (≈ 8.59 µM) | 2 (≈ 4.3 µM) | 4 (≈ 8.59 µM) | > 16 | > 16 | > 16 | > 16
7 | CCCC[C@H](CN(O)C=O)C(=O)N1CCC[C@H]1c1nnc(-c2ccc(OC)cc2)s1 | 0.25 (≈ 0.578 µM) | 0.25 (≈ 0.578 µM) | 1 (≈ 2.31 µM) | 0.5 (≈ 1.16 µM) | 0.5 (≈ 1.16 µM) | 0.5 (≈ 1.16 µM) | 1 (≈ 2.31 µM) | > 16 | > 16 | 16 (≈ 37 µM) | > 8
8 | CCCC[C@H](CN(O)C=O)C(=O)N1CCC[C@H]1c1nnc(-c2ccc(Br)s2)s1 | 0.25 (≈ 0.513 µM) | 0.25 (≈ 0.513 µM) | 2 (≈ 4.1 µM) | 2 (≈ 4.1 µM) | 1 (≈ 2.05 µM) | 2 (≈ 4.1 µM) | 1 (≈ 2.05 µM) | 64 (≈ 131 µM) | 32 (≈ 65.6 µM) | 32 (≈ 65.6 µM) | 16 (≈ 32.8 µM)
9 | CCCC[C@H](CN(O)C=O)C(=O)N1CCC[C@H]1c1nnc(-c2ccccn2)s1 | 0.5 (≈ 1.24 µM) | 0.5 (≈ 1.24 µM) | 1 (≈ 2.48 µM) | 1 (≈ 2.48 µM) | 0.5 (≈ 1.24 µM) | 0.5 (≈ 1.24 µM) | 0.5 (≈ 1.24 µM) | 128 (≈ 317 µM) | 32 (≈ 79.3 µM) | 32 (≈ 79.3 µM) | 16 (≈ 39.7 µM)
10 | CCCC[C@H](CN(O)C=O)C(=O)N1CCC[C@H]1c1nnc(-c2ccc(C)cc2)s1 | 0.5 (≈ 1.2 µM) | 1 (≈ 2.4 µM) | 1 (≈ 2.4 µM) | 1 (≈ 2.4 µM) | 1 (≈ 2.4 µM) | 1 (≈ 2.4 µM) | 2 (≈ 4.8 µM) | 16 (≈ 38.4 µM) | > 16 | > 16 | 8 (≈ 19.2 µM)
11 | CCCC[C@H](CN(O)C=O)C(=O)N1CCC[C@H]1c1nnc(-c2ccncc2)s1 | 0.25 (≈ 0.62 µM) | 0.5 (≈ 1.24 µM) | 1 (≈ 2.48 µM) | 0.5 (≈ 1.24 µM) | 1 (≈ 2.48 µM) | 0.5 (≈ 1.24 µM) | 0.5 (≈ 1.24 µM) | 128 (≈ 317 µM) | 32 (≈ 79.3 µM) | 64 (≈ 159 µM) | 32 (≈ 79.3 µM)
12 | CCCC[C@H](CN(O)C=O)C(=O)N1CCC[C@H]1c1nnc(-c2c(F)cccc2[N+](=O)[O-])s1 | 1 (≈ 2.15 µM) | 2 (≈ 4.3 µM) | 2 (≈ 4.3 µM) | 2 (≈ 4.3 µM) | 2 (≈ 4.3 µM) | 2 (≈ 4.3 µM) | 4 (≈ 8.59 µM) | > 16 | > 16 | > 16 | > 16
13 | CCCC[C@H](CN(O)C=O)C(=O)N1CCC[C@H]1c1nnc(-c2ccco2)s1 | 0.5 (≈ 1.27 µM) | 0.5 (≈ 1.27 µM) | 2 (≈ 5.1 µM) | 2 (≈ 5.1 µM) | 4 (≈ 10.2 µM) | 1 (≈ 2.55 µM) | 0.5 (≈ 1.27 µM) | 64 (≈ 163 µM) | 32 (≈ 81.5 µM) | 16 (≈ 40.8 µM) | 16 (≈ 40.8 µM)
14 | CCCC[C@H](CN(O)C=O)C(=O)N1CCC[C@H]1c1nnc(-c2ccc(C(C)(C)C)cc2)s1 | 1 (≈ 2.18 µM) | 1 (≈ 2.18 µM) | 4 (≈ 8.72 µM) | 2 (≈ 4.36 µM) | 4 (≈ 8.72 µM) | 2 (≈ 4.36 µM) | 4 (≈ 8.72 µM) | > 16 | > 16 | > 16 | > 16
15 | CCCC[C@H](CN(O)C=O)C(=O)N1CCC[C@H]1c1nnc(-c2ccc(F)cc2)s1 | 0.25 (≈ 0.595 µM) | 1 (≈ 2.38 µM) | 2 (≈ 4.76 µM) | 2 (≈ 4.76 µM) | 2 (≈ 4.76 µM) | 1 (≈ 2.38 µM) | 2 (≈ 4.76 µM) | 16 (≈ 38 µM) | > 16 | > 16 | 8 (≈ 19 µM)
16 | CCCC[C@H](CN(O)C=O)C(=O)N1CCC[C@H]1c1nnc(-c2ccc(F)cn2)s1 | 0.5 (≈ 1.19 µM) | 0.5 (≈ 1.19 µM) | 2 (≈ 4.74 µM) | 1 (≈ 2.37 µM) | 2 (≈ 4.74 µM) | 2 (≈ 4.74 µM) | 2 (≈ 4.74 µM) | 16 (≈ 38 µM) | > 16 | 16 (≈ 38 µM) | 8 (≈ 19 µM)
17 | CCCC[C@H](CN(O)C=O)C(=O)N1CCC[C@H]1c1nnc(-c2ccc3[nH]ccc3c2)s1 | 4 (≈ 9.06 µM) | 4 (≈ 9.06 µM) | 8 (≈ 18.1 µM) | 4 (≈ 9.06 µM) | 8 (≈ 18.1 µM) | 4 (≈ 9.06 µM) | 16 (≈ 36.2 µM) | > 16 | > 16 | > 16 | > 16
18 | CCCC[C@H](CN(O)C=O)C(=O)N1CCC[C@H]1c1nnc(-c2ccc(OC)c(OC)c2)s1 | 0.25 (≈ 0.54 µM) | 0.25 (≈ 0.54 µM) | 1 (≈ 2.16 µM) | 0.5 (≈ 1.08 µM) | 1 (≈ 2.16 µM) | 1 (≈ 2.16 µM) | 2 (≈ 4.32 µM) | > 16 | > 16 | > 16 | 16 (≈ 34.6 µM)
19 | CCCC[C@H](CN(O)C=O)C(=O)N1CCC[C@H]1c1nnc(-c2ccsc2)s1 | 0.25 (≈ 0.612 µM) | 0.25 (≈ 0.612 µM) | 4 (≈ 9.79 µM) | 1 (≈ 2.45 µM) | 1 (≈ 2.45 µM) | 4 (≈ 9.79 µM) | 2 (≈ 4.9 µM) | 64 (≈ 157 µM) | 32 (≈ 78.3 µM) | 32 (≈ 78.3 µM) | 16 (≈ 39.2 µM)
20 | CCCC[C@H](CN(O)C=O)C(=O)N1CCC[C@H]1c1nnc(-c2sccc2F)s1 | 0.5 (≈ 1.17 µM) | 0.5 (≈ 1.17 µM) | 2 (≈ 4.69 µM) | 0.5 (≈ 1.17 µM) | 0.5 (≈ 1.17 µM) | 0.5 (≈ 1.17 µM) | 1 (≈ 2.34 µM) | 64 (≈ 150 µM) | 16 (≈ 37.5 µM) | 16 (≈ 37.5 µM) | 16 (≈ 37.5 µM)
21 | CCCC[C@H](CN(O)C=O)C(=O)N1CCC[C@H]1c1nnc(-c2ccc([N+](=O)[O-])cc2C(F)(F)F)s1 | 0.5 (≈ 0.97 µM) | 0.5 (≈ 0.97 µM) | 1 (≈ 1.94 µM) | 1 (≈ 1.94 µM) | 2 (≈ 3.88 µM) | 0.5 (≈ 0.97 µM) | 4 (≈ 7.76 µM) | > 16 | > 16 | > 16 | > 16
22 | CCCC[C@H](CN(O)C=O)C(=O)N1CCC[C@H]1c1nnc(C2CCCCC2)s1 | 0.5 (≈ 1.22 µM) | 1 (≈ 2.45 µM) | 2 (≈ 4.9 µM) | 2 (≈ 4.9 µM) | 2 (≈ 4.9 µM) | 2 (≈ 4.9 µM) | 4 (≈ 9.79 µM) | > 16 | > 16 | > 16 | > 16
23 | CCCC[C@H](CN(O)C=O)C(=O)N1CCC[C@H]1c1nnc(-c2ccccc2F)s1 | 0.5 (≈ 1.19 µM) | 0.5 (≈ 1.19 µM) | 1 (≈ 2.38 µM) | 1 (≈ 2.38 µM) | 0.5 (≈ 1.19 µM) | 0.5 (≈ 1.19 µM) | 2 (≈ 4.76 µM) | 16 (≈ 38 µM) | > 16 | 16 (≈ 38 µM) | 8 (≈ 19 µM)
24 | CCCC[C@H](CN(O)C=O)C(=O)N1CCC[C@H]1c1nnc(-c2ncccc2F)s1 | 0.25 (≈ 0.593 µM) | 0.25 (≈ 0.593 µM) | 2 (≈ 4.74 µM) | 1 (≈ 2.37 µM) | 1 (≈ 2.37 µM) | 1 (≈ 2.37 µM) | 1 (≈ 2.37 µM) | > 16 | > 16 | 16 (≈ 38 µM) | 16 (≈ 38 µM)
25 | CCCC[C@H](CN(O)C=O)C(=O)N1CCC[C@H]1c1nnc(-c2ccc(-c3ccccc3)cc2)s1 | 1 (≈ 2.09 µM) | 1 (≈ 2.09 µM) | 2 (≈ 4.18 µM) | 2 (≈ 4.18 µM) | 2 (≈ 4.18 µM) | 2 (≈ 4.18 µM) | > 16 | > 16 | > 16 | > 16 | > 16
26 | CN[C@H](CC(C)C)C(=O)N[C@H]1C(=O)N[C@@H](CC(N)=O)C(=O)N[C@H]2C(=O)N[C@H]3C(=O)N[C@H](C(=O)N[C@H](C(=O)O)c4cc(O)cc(O)c4-c4cc3ccc4O)[C@H](O)c3ccc(c(Cl)c3)Oc3cc2cc(c3O[C@@H]2O[C@H](CO)[C@@H](O)[C@H](O)[C@H]2O[C@H]2C[C@](C)(N)[C@H](O)[C@H](C)O2)Oc2ccc(cc2Cl)[C@H]1O [VANCOMYCIN] |  | 0.25 (≈ 0.173 µM) |  |  |  |  | 16 (≈ 11 µM) | 16 (≈ 11 µM) | 16 (≈ 11 µM) | 16 (≈ 11 µM) | 16 (≈ 11 µM)
